# Laboratory results as given in patent US20230233690A1, “ANDROGEN RECEPTOR PROTEIN DEGRADERS” (THE REGENTS OF THE UNIVERSITY OF MICHIGAN, priority 2020, published 2023).
# Biological target: T1, AR protein (Homo sapiens, UniProt P10275)
# T1 construct: endogenous in cells; host or cells: VCaP
# T1 sequence (P10275 1-920): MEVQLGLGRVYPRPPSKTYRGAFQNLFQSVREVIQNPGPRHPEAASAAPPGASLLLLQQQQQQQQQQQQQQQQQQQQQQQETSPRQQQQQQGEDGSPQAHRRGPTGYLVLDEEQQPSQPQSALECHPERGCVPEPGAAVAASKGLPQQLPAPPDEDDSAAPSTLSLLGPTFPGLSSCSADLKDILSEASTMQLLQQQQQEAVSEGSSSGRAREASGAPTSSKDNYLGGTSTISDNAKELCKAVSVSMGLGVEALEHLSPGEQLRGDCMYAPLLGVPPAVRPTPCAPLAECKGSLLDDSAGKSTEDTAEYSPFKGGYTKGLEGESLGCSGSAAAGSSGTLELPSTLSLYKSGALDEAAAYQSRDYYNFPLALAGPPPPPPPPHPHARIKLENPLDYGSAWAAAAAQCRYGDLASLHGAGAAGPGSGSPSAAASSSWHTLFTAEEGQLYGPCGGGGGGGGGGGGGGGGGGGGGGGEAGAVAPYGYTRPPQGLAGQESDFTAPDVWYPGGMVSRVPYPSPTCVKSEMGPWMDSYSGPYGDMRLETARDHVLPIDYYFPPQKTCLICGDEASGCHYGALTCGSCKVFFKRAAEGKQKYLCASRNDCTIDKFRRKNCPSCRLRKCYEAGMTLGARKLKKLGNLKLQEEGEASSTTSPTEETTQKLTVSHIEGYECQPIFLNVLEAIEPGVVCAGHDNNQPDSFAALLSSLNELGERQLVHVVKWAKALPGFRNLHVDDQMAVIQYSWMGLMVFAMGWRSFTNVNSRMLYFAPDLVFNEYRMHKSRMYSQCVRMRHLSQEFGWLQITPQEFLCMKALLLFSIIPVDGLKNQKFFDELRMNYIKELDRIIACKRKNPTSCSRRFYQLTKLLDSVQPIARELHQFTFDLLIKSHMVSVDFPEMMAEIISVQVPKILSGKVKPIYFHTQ
# Assay: Western blotting of AR protein degradation in VCaP cells
# Assay type: cell-based
# Settings: for AR protein degradation VCap 10 nM / AR protein degradation VCap 100 nM: 24 hr treatment
# Protocol: The treated cells were lysed with RIPA buffer. […] GAPDH was used as a loading control.
# Bands were quantified with ImageJ software. The relative numbers of each band obtained from normalization with its corresponding GAPDH level were compared with Prism 8 software. The DC50 values were produced from Prism 8, and the DC90 values were calculated with an equation=Bottom+(Top−Bottom)/(1+10^((Log EC50−X)*HillSlope) based on DC50 and Hillslope values.
% AR protein degradation in VCaP Cells (0.001 μM) [%],% AR protein degradation in VCaP Cells (0.01 μM) [%],% AR protein degradation in VCaP Cells (0.1 μM) [%],% AR protein degradation in VCaP Cells (1 μM) [%],Structure (SMILES),AR protein degradation VCap 10 nM,AR protein degradation VCap 100 nM
25,70,86,82,"N#Cc1ccc(O[C@H]2CC[C@H](NC(=O)c3ccc(NCCCCCCNc4ccc5c(c4)C(=O)N(C4CCC(=O)NC4=O)C5=O)cc3)CC2)cc1Cl (stereo partly drawn) [compound 212, N-((1r,4r)-4-(3-chloro-4-cyanophenoxy)cyclohexyl)-4-((6-((2-(2,6-dioxopiperidin-3-yl)-1,3-dioxoisoindolin-5-yl)amino)hexyl)amino)benzamide]",–,–
27,43,65,46,"N#Cc1ccc(O[C@H]2CC[C@H](NC(=O)c3ccc(NCCCCCCCCNc4ccc5c(c4)C(=O)N(C4CCC(=O)NC4=O)C5=O)cc3)CC2)cc1Cl (stereo partly drawn) [compound 214, N-((1r,4r)-4-(3-chloro-4-cyanophenoxy)cyclohexyl)-4-((8-((2-(2,6-dioxopiperidin-3-yl)-1,3-dioxoisoindolin-5-yl)amino)octyl)amino)benzamide]",–,–
2,3,23,18,"N#Cc1ccc(O[C@H]2CC[C@H](NC(=O)c3ccc(N4CCC(N5CCN(c6ccc7c(c6)C(=O)N(C6CCC(=O)NC6=O)C7=O)CC5)CC4)cc3)C2)cc1Cl (stereo partly drawn) [compound 226, N-((1S,3S)-3-(3-chloro-4-cyanophenoxy)cyclopentyl)-4-(4-(4-(2-(2,6-dioxopiperidin-3-yl)-1,3-dioxoisoindolin-5-yl)piperazin-1-yl)piperidin-1-yl)benzamide]",–,–
17,22,51,34,"N#Cc1ccc(O[C@H]2CC[C@H](NC(=O)c3ccc(N4CCN(CCCCCNc5ccc6c(c5)C(=O)N(C5CCC(=O)NC5=O)C6=O)CC4)cc3)CC2)cc1Cl (stereo partly drawn) [compound 221, N-((1r,4r)-4-(3-chloro-4-cyanophenoxy)cyclohexyl)-4-(4-(5-((2-(2,6-dioxopiperidin-3-yl)-1,3-dioxoisoindolin-5-yl)amino)pentyl)piperazin-1-yl)benzamide]",–,–
17,40,62,38,"N#Cc1ccc(O[C@H]2CC[C@H](NC(=O)c3ccc(NCCCCCCCNc4ccc5c(c4)C(=O)N(C4CCC(=O)NC4=O)C5=O)cc3)CC2)cc1Cl (stereo partly drawn) [compound 213, N-((1r,4r)-4-(3-chloro-4-cyanophenoxy)cyclohexyl)-4-((7-((2-(2,6-dioxopiperidin-3-yl)-1,3-dioxoisoindolin-5-yl)amino)heptyl)amino)benzamide]",–,–
59,82,82,79,"N#Cc1ccc(O[C@H]2CC[C@H](NC(=O)c3ccc(NCCCCCNc4ccc5c(c4)C(=O)N(C4CCC(=O)NC4=O)C5=O)cc3)CC2)cc1Cl (stereo partly drawn) [compound 211, N-((1r,4r)-4-(3-chloro-4-cyanophenoxy)cyclohexyl)-4-((5-((2-(2,6-dioxopiperidin-3-yl)-1,3-dioxoisoindolin-5-yl)amino)pentyl)amino)benzamide]",–,–
22,36,34,43,"N#Cc1ccc(O[C@@H]2CCC[C@@H](NC(=O)c3ccc(N4CCC(N5CCN(c6ccc7c(c6)C(=O)N(C6CCC(=O)NC6=O)C7=O)CC5)CC4)cc3)CC2)cc1Cl (stereo partly drawn) [compound 227, N-((1R,4R)-4-(3-chloro-4-cyanophenoxy)cycloheptyl)-4-(4-(4-(2-(2,6-dioxopiperidin-3-yl)-1,3-dioxoisoindolin-5-yl)piperazin-1-yl)piperidin-1-yl)benzamide]",–,–

# More lines, now with the values behind:
Structure (SMILES),% AR protein degradation in VCaP Cells (0.001 μM) [%],% AR protein degradation in VCaP Cells (0.01 μM) [%],% AR protein degradation in VCaP Cells (0.1 μM) [%],% AR protein degradation in VCaP Cells (1 μM) [%],AR protein degradation VCap 10 nM,AR protein degradation VCap 100 nM
"N#Cc1ccc(O[C@H]2CC[C@H](Nc3ccc(C(=O)N4CCN(C5CN(c6ccc7c(c6)C(=O)N(C6CCC(=O)NC6=O)C7=O)C5)CC4)cc3)CC2)cc1Cl (stereo partly drawn) [Cpd. No. 17, 2-chloro-4-(((1r,4r)-4-((4-(4-(1-(2-(2,6-dioxopiperidin-3-yl)-1,3-dioxoisoindolin-5-yl)azetidin-3-yl)piperazinecarbonyl)phenyl)amino)cyclohexyl)oxy)benzonitrile]",–,–,–,–,B (>50% degradation but <90% (24 hr treatment)),B (>50% degradation but <90% (24 hr treatment))
CN(c1ccc(C#N)c(Cl)c1)C1CCC(NC(=O)c2ccc(C#CC3CCN(C4CCN(c5ccc6c(c5)C(=O)N(C5CCC(=O)NC5=O)C6=O)CC4)CC3)cc2)CC1 (stereo not drawn) [compound 32],–,–,–,–,A (>90% degradation (24 hr treatment)),A (>90% degradation (24 hr treatment))
N#Cc1ccc(O[C@H]2CC[C@H](NC(=O)c3ccc(N4CCN(C5CN(c6ccc7c(c6)C(=O)N(C6CCC(=O)NC6=O)C7=O)C5)CC4)cc3)CC2)cc1Cl (stereo partly drawn) [Cpd. No. 22],–,–,–,–,A (>90% degradation (24 hr treatment)),A (>90% degradation (24 hr treatment))
N#Cc1ccc(O[C@H]2CC[C@H](Nc3ccc(C(=O)N4CCN(CC5CCN(c6ccc7c(c6)C(=O)N(C6CCC(=O)NC6=O)C7=O)CC5)CC4)cc3)CC2)cc1Cl (stereo partly drawn) [compound 13],–,–,–,–,C (>10% degradation but <50% (24 hr treatment)),B (>50% degradation but <90% (24 hr treatment))
C[C@H]1C[C@@H](NC(=O)c2ccc(N3CCN(CC4CCN(c5ccc6c(c5)C(=O)N(C5CCC(=O)NC5=O)C6=O)CC4)CC3)cc2)CC[C@@H]1Oc1ccc(C#N)c(Cl)c1 (stereo partly drawn) [Cpd. No. 23],–,–,–,–,A (>90% degradation (24 hr treatment)),A (>90% degradation (24 hr treatment))
"N#Cc1ccc(N[C@H]2CC[C@H](NC(=O)c3ccc(N4CCC(N5CCN(c6ccc7c(c6)C(=O)N(C6CCC(=O)NC6=O)C7=O)CC5)CC4)cc3)CC2)cc1Cl (stereo partly drawn) [compound 229, N-((1r,4r)-4-((3-chloro-4-cyanophenyl)amino)cyclohexyl)-4-(4-(4-(2-(2,6-dioxopiperidin-3-yl)-1,3-dioxoisoindolin-5-yl)piperazin-1-yl)piperidin-1-yl)benzamide]",51,62,52,43,–,–
"CC1(C)C(=O)N(c2ccc(C#N)c(C(F)(F)F)c2)C(=S)N1c1ccc(C(=O)N2CCN(C3CCN(c4ccc5c(c4)C(=O)N(C4CCC(=O)NC4=O)C5=O)CC3)CC2)c(F)c1 (stereo not drawn) [compound 242, 4-(3-(4-(4-(1-(2-(2,6-dioxopiperidin-3-yl)-1,3-dioxoisoindolin-5-yl)piperidin-4-yl)piperazine-1-carbonyl)-3-fluorophenyl)-4,4-dimethyl-5-oxo-2-thioxoimidazolidin-1-yl)-2-(trifluoromethyl)benzonitrile]",14,6,18,31,–,–
"N#Cc1ccc(O[C@H]2CC[C@H](NC(=O)c3ccc(N4CCN(CCCCNc5ccc6c(c5)C(=O)N(C5CCC(=O)NC5=O)C6=O)CC4)cc3)CC2)cc1Cl (stereo partly drawn) [compound 220, N-((1r,4r)-4-(3-chloro-4-cyanophenoxy)cyclohexyl)-4-(4-(4-((2-(2,6-dioxopiperidin-3-yl)-1,3-dioxoisoindolin-5-yl)amino)butyl)piperazin-1-yl)benzamide]",18,60,80,62,–,–
"N#Cc1ccc(O[C@H]2CC[C@H](NC(=O)c3ccc(N4CCN(C5CCN(c6ccc7c(c6)C(=O)N(C6CCC(=O)NC6=O)C7=O)CC5)CC4)cc3)CC2)cc1Cl (stereo partly drawn) [Cpd. No. 21, N-((1r,4r)-4-(3-chloro-4-cyanophenoxy)cyclohexyl)-4-(4-(1-(2-(2,6-dioxopiperidin-3-yl)-1,3-dioxoisoindolin-5-yl)piperidin-4-yl)piperazin-1-yl)benzamide]",–,–,–,–,A (>90% degradation (24 hr treatment)),A (>90% degradation (24 hr treatment))
CN(c1ccc(C#N)c(Cl)c1)[C@H]1CC[C@H](NC(=O)c2ccc(N3CCN(CC4CCN(c5ccc6c(c5)C(=O)N(C5CCC(=O)NC5=O)C6=O)CC4)CC3)cc2)CC1 (stereo partly drawn) [compound 29],–,–,–,–,A (>90% degradation (24 hr treatment)),A (>90% degradation (24 hr treatment))
